Results taken from PubChem BioAssay (NCI).
“And” between values parts separate entries of the source, which are not always exact repeats. Identical values can stand only once.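 In this assay, cells in 96-well plates receive the compound at five concentrations for 48 hours. Endpoints are linearly interpolated between the surrounding concentrations. The concentration for 50% growth inhibition is given as GI50. TGI denotes the concentration required for complete inhibition of growth.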

Experiments:
Test in all cases: inhibition of tumour cell growth, NCI panel, 48 h
MALME-3M melanoma = tested on: MALME-3M melanoma
SK-MEL-5 melanoma = tested on: SK-MEL-5 melanoma
IGROV1 ovarian = tested on: IGROV1 ovarian
UACC-62 melanoma = tested on: UACC-62 melanoma
UACC-257 melanoma = tested on: UACC-257 melanoma
CCRF-CEM leukemia = tested on: CCRF-CEM leukemia
NCI-H226 lung = tested on: NCI-H226 lung
RPMI-8226 leukemia = tested on: RPMI-8226 leukemia

SMILES | GI50 (MALME-3M melanoma) | TGI (MALME-3M melanoma) | GI50 (SK-MEL-5 melanoma) | TGI (SK-MEL-5 melanoma) | GI50 (IGROV1 ovarian) | TGI (IGROV1 ovarian) | GI50 (UACC-62 melanoma) | TGI (UACC-62 melanoma) | GI50 (UACC-257 melanoma) | TGI (UACC-257 melanoma) | GI50 (CCRF-CEM leukemia) | TGI (CCRF-CEM leukemia) | GI50 (NCI-H226 lung) | TGI (NCI-H226 lung) | GI50 (RPMI-8226 leukemia) | TGI (RPMI-8226 leukemia)
CCC1=C(c2ccc(OC)cc2)C(C)(C)Oc2c1ccc(O)c2CN1CCCC1 | 2.05 µM | 5.36 µM | 1.3 µM | 2.57 µM | 3.84 µM | 23.9 µM | 1.81 µM | 3.86 µM | 1.78 µM | 3.85 µM | 1.86 µM | 5.38 µM | 2.45 µM | 14.7 µM | 0.721 µM | 2.45 µM
COc1ccc(Br)cc1NC(=O)Nc1cccc2c1ccn2Cc1ccnc(N)c1 | 12.1 µM and > 10 µM | 32 µM and > 10 µM | 10.2 µM and 5.28 µM | 23 µM and > 10 µM | 7.64 µM and 3.95 µM | 44.2 µM and > 10 µM | 6.17 µM and 5.94 µM | 21.7 µM and > 10 µM | 9.81 µM and > 10 µM | 27.5 µM and > 10 µM | 3.92 µM and 5.43 µM | 40 µM and > 10 µM | 6.45 µM and 8.39 µM | 48.4 µM and > 10 µM | 2.93 µM and 3.54 µM | > 31.6 µM
Cc1c(CN2CCN(C(=O)[C@H](C)O)CC2)sc2c(N3CCOCC3)nc(-c3cnc(N)nc3)nc12 | 0.0506 µM | 0.847 µM and 0.414 µM | 0.397 µM and 0.174 µM | 2.15 µM and 0.741 µM | 0.0161 µM and 0.0511 µM | 0.265 µM and 0.377 µM | 0.1 µM and 0.11 µM | 0.917 µM and 0.467 µM | 0.31 µM and 0.132 µM | 3.76 µM and 0.751 µM | 1.11 µM and 0.322 µM | > 100 µM | 0.345 µM and 0.159 µM | 6.15 µM | 0.267 µM and 0.206 µM | > 8.66 µM and 11.8 µM
Cc1c(Cn2c(C)nc3c(C(=O)O)cc(N4CCOCC4)cc32)cccc1C(F)(F)F | > 69.7 µM | > 100 µM | 47.1 µM | > 100 µM | 40.2 µM | > 100 µM | 21.1 µM | > 100 µM | 61.1 µM | > 100 µM | 44.3 µM | > 100 µM | 67.2 µM | > 100 µM | 64.8 µM | > 100 µM
C(=N\Nc1ncc(-c2cc3cc4c(cc3o2)OCO4)s1)/c1ccco1 | 1.92 µM | 6.18 µM | 2.07 µM | 4.6 µM | 2.6 µM | 8.09 µM | 3.81 µM | 14.5 µM | 3.83 µM | 23.2 µM | 0.551 µM | 16.2 µM | 3.67 µM | 18.9 µM | 3.08 µM | 13.3 µM
Fc1cccc(COc2ccc(Nc3ncnc4onc(-c5ccccc5)c34)cc2)c1 | 0.206 µM | > 100 µM | 0.299 µM | 30.4 µM | 0.249 µM | > 100 µM | 0.496 µM | > 64.4 µM | 37.5 µM | > 100 µM | 0.287 µM | > 50.4 µM | 3.06 µM | > 100 µM | 0.0497 µM | > 42 µM
Cc1ccc(OP(=O)(Oc2ccc(C)cc2)N2C=Cc3ccccc3C2C#N)cc1 (stereo not given) | – | > 100 µM | – | > 100 µM | – | > 100 µM | – | > 100 µM | – | > 100 µM | – | > 100 µM | – | > 100 µM | – | > 100 µM
COc1cc(-n2ccnc2-c2ccc3ccccc3c2)cc(OC)c1OC | 3.66 µM | 31.9 µM | < 0.0198 µM | 12.3 µM | 0.259 µM | > 51.2 µM | 0.0657 µM | 15.4 µM | 20 µM | > 100 µM | 0.136 µM | > 100 µM | 5.7 µM | > 53.7 µM | 0.292 µM | 20.6 µM
CC1(C)N=C(N)N=C(N)N1c1ccc(CNC(=O)Nc2ccc(S(=O)(=O)F)c(Cl)c2)c(Cl)c1 | 17.3 µM | > 100 µM | 0.88 µM | > 74.7 µM | 0.0805 µM | > 100 µM | 0.303 µM | > 100 µM | 5.11 µM | > 100 µM | 0.477 µM | > 100 µM | 13.7 µM | > 100 µM | 1.43 µM | > 100 µM
CC(C)(C)OC(=O)NCC(CNC(=O)OC(C)(C)C)C(N)=O | – | > 100 µM | – | > 100 µM | – | > 100 µM | – | > 100 µM | – | > 100 µM | – | > 100 µM | – | > 100 µM | – | > 100 µM
CCOC(=O)c1[nH]c2cc(Cl)ccc2c1[C@@H](C(=O)NC(C)(C)C)N(CC)C(=O)CCCCC#Cc1cccc2c1CN(C1CCC(=O)NC1=O)C2=O (stereo not given in full) | < 0.01 µM | 0.456 µM | 1.22 µM | 2.56 µM | < 0.0109 µM | 11.1 µM | 1.56 µM | 5.51 µM | 3.05 µM | > 87.5 µM | < 0.01 µM | > 100 µM | 0.0343 µM | – | 0.185 µM | 2.88 µM
CSC(=O)C[C@@]12O[C@@H]([C@@H](C)C3CCC4[C@@H]5C(O)CC6=CC(=O)C=C[C@]6(C)C5CC[C@@]43C)C[C@](C)(O1)C(C)(C)O2 (stereo not given in full) | – | 43.5 µM | – | – | – | 46.2 µM | – | 27 µM | – | 26.9 µM | – | 19.1 µM | – | 38.7 µM | – | 34.3 µM
CC(C)(C)OC(=O)C1C(=O)NC(=O)CC1CC(OCc1ccccc1)C(OCc1ccccc1)C(COCc1ccccc1)OCc1ccccc1 (stereo not given) | 25.4 µM and 11.4 µM | > 100 µM and 45.4 µM | 22 µM and 10.6 µM | > 100 µM and 37.6 µM | > 100 µM and 22.3 µM | > 100 µM | – | – | 47.8 µM and 15.3 µM | > 100 µM | 60.6 µM and 11.8 µM | > 100 µM | 33 µM and 14 µM | > 100 µM | 21.5 µM and 7.16 µM | > 100 µM and 34.1 µM
